We go through five substances from patent publication US20180228703A1, “Improved Hyaluronan and Modified-Hyaluronan in Biomedical Applications” (CHL Industries, LLC, priority 2015, published 2018).

One data set concerns COL15A1. As to the kind of experiment: Collagen gene expression in adult human dermal fibroblasts, PCR array. Format: cell-based. The conditions noted are these: HDF, 24 hours. As for the experimental part: (§1) Using adult human dermal fibroblasts (Cell Applications, San Diego, Calif.) (“HDF”), the effectiveness of three chlorophyllin materials—Isochlorin E4 Disodium (“E4”); Sodium Copper Chlorophyllin C3999 (“C3999”); and Chlorophyllin Sodium Copper Salt (“CSCS”)—are assessed for the ability to positively effect the differential expression of at least one of the following three collagen genes—COL15A1; COL1A1; and COL5A1. After cell viability tests, the effect of 2 μg/ml E4, 10 μg/ml CSCS, and 10 μg/ml C3999 on adult human dermal fibroblasts (100,000 cells/well) on gene expression were evaluated using PCR arrays.
(§2) HDF cells were incubated for 24 hours in a 12-well plate at a concentration of 100,000 cells/well in Dulbecco's Modified Eagle Medium (DMEM) with 5% Fetal Bovine Serum (FBS). The three test materials were added to the wells, incubated for 24 hours. […] RNA was extracted and purified with NucleoSpin RNA II kit from Machery-Nagel (Bethlehem, Pa.). Purified total RNA was analyzed at 230 nm, 260 nm and 280 nm with Agilent HP-8452A diode array spectrophotometer. The concentration of RNA was equalized across the samples and the expression of genes of interest was measured by real-time quantitative PCR with BioRad iCycler iQ Detection System using Human Extracellular Matrix & Adhesion Molecules PCR array PAHS-13ZA from Qiagen (formerly SA Biosciences, Frederick, Md.). Reactions were performed with 1st strand synthesis kit, SYBR Green master mix and PCR setup parameters from Qiagen. Results were normalized to housekeeping genes with the RT2 Profiler PCR Array Data Analysis version 3.5 software
(§3) Genes were considered differentially expressed if the level of expression was detected in less than 30 cycles, and modulation was 1.5 fold or higher.

The test system of the next data set is COL1A1. Described as above. In kind it is cell-based. The settings on record: HDF, 24 hours. The method, then: as §1, §2, §3
In the next data set the test system is COL5A1. The description is as above. In kind it is cell-based. The settings on record: HDF, 24 hours. The method, then: as §1, §2, §3
Data set [1] concerns non-soluble type I collagen. Description: Non-soluble type I collagen production by HDF, direct ELISA. Format: cell-based, human. The settings on record: for % CTRL (COL-I): 4 days, vs water; for % CTRL (Cell # Standardized): non-soluble collagen I standardized to cell numbers; for Cell # Standardized: repeat testing, type I collagen deposition, H2O = 100. The method, then:
Adult human dermal fibroblasts (Cell Applications, San Diego, Calif.) were plated in DMEM without phenyl red supplemented with 5% FBS and 1% penicillin/streptomycin (PS) at a concentration of 8,000 cells/well. Test materials, which were stored at 4° C. until dissolved at 20 mg/ml in ddH2O, were added the next day on attached exponentially-growing cells.
Cells were then fixed with 2.5% trichloroacetic acid (TCA) at 4° C., dried overnight, and tested for non-soluble type I collagen, using direct ELISA.
(§4) Cells proliferation was quantified by staining cytoskeletons with sulforhodamine B according to the colorimetric method of Voigt, “Sulforhodamine B assay and chemosensitivity,” Methods Mol. Med. Vol. 110, pp. 39-48 (2005). Statistical significance was assessed with two-tailed paired Student test. Deviations of >15% as compared to the negative water control with p values below 0.05 were considered statistically significant.

For data set [2], the system named is adult human dermal fibroblasts. Description: Cell proliferation, sulforhodamine B staining. Format: cell-based. The settings on record: 4 days, vs water. As for the experimental part:
Adult human dermal fibroblasts (Cell Applications, San Diego, Calif.) were plated in DMEM without phenyl red supplemented with 5% FBS and 1% penicillin/streptomycin (PS) at a concentration of 8,000 cells/well. Test materials, which were stored at 4° C. until dissolved at 20 mg/ml in ddH2O, were added the next day on attached exponentially-growing cells. Negative and positive controls were, respectively, type I sterile water and L-Ascorbic acid 2-phosphate sesquimagnesium salt (“MAP”) (Sigma-Aldrich).
as §4

A short description of data set [3]: Viscosity of HA solution on storage at 25, 40 and 50° C. (cone-plate viscometer). Format: physicochemical. The method, then: Viscosity measurements are made of vials of sterile, injectable grade, high molecular weight 1% sodium hyaluronate solution (Hycoat® Sterile Wound Management Solution; Hyaluronate Sodium, Solution 20 mg/2 mL; avg. molecular weight 1.0-1.3 million Daltons; supplied by Hymed Group, Bethlehem, Pa.) containing Chlorophyllin Copper Complex Sodium at varying concentrations as summarized in the table below. Preferably, dissolved and atmospheric oxygen is purged from the HA solution by displacing the headspace in the vial with Nitrogen or Argon.
Sodium copper chlorophyllin complex (disodium copper isochlorin e4 minimum content of 25% based on dry weight of complex; supplied by Frontier Scientific, Logan, Utah) is added to the 1% HA test solutions (i.e., 2 mL Hycoat® described above) as follows: 1 gram of CHLcu is added to 99 grams of distilled water, heated to 50° C., mixed for 30 minutes with a magnetic stirrer, and then cooled to room temperature. The specified concentration of CHLCu solution is drawn into a syringe through a 0.45u syringe filter and added to the sterile vial of 1% HA solution under a laminar flow hood. For example, in order to prepare a 1% HA solution containing 100 ppm of CHLcu in the final HA solution 20.5 microliters (0.0205 mL) of the 1% CHLCu solution is injected into the vial of 2 mL of sterile HA solution.
Each of the 2 mL test samples (with and without CHLcu) are stored at 25° C., 40° C., and 50° C. for up to eight weeks. Viscosity measurements are taken at baseline and at 1, 2, 4, 6 and 8 weeks after storage at the three temperatures.
0.5 mL of the test sample is then withdrawn from each vial, causing a temporary shear in the sample viscosity.
All samples (1% HA+CHLCu) are equilibrated prior to viscosity measurement. […]
Each withdrawn sample is allowed to further equilibrate for five additional minutes before taking viscosity measurements. Viscosity is preferably measured at 2 rpm with a cone-plate viscometer (e.g., Brookfield LVD-II Pro Cone/Plate viscometer; CPE-51 spindle from Brookfield Engineering Laboratories, Inc. Middleboro, Mass.).

Data set [4] has as its system Vitrase injectable sterile hyaluronidase. As to the kind of experiment: Anti-hyaluronidase activity: viscosity of 1% HA before and after addition of Vitrase. In kind it is biochemical, Ovine. The method, then: In order to assess the anti-hyaluronidase activity of the CHLcu stabilizing agent, 40 units (0.2 mL) of Vitrase® injectable sterile hyaluronidase solution (Ovine, 200 USP Units/mL) is added to each of four 1% HA samples that have been stored at 25° C. for six weeks with (a) no CHLCu; (b) 50 ppm CHLCu; (c) 100 ppm CHLCu; and (d) 250 ppm CHLCu). Anti-hyaluronidase activity is measured by comparing the viscosity of the test samples before and after addition of Vitrase®.
A product containing 1% HA (Hycoat® Sterile Wound Management Solution; Hyaluronate Sodium, Solution 20 mg/2 mL; average molecular weight 1.0-1.3 million Daltons) and 100 mcg/mL CHLCu was combined with 40 units (0.2 mL) of Vitrase® injectable sterile hyaluronidase solution (Ovine, 200 USP Units/mL) and stored at 25° C. for 30 minutes. The viscosity of the combined solution of sodium HA, CHLCu, and Vitrase® composition was seen to drop from 450.6 cps to 161.8 cps, or 35.9% of initial viscosity.
By way of comparison, the viscosity of the same 1% HA solution without CHLCu was measured, and then exposed to 40 units of the same Vitrase. After 30 minutes of Vitrase® contact, the 1% HA solution underwent a viscosity change from 516.2 cps to 43.69 cps or only 8.5% of the initial HA viscosity.

A further data set concerns HDF. As to the kind of experiment: Long term HDF viability, MTT assay. In kind it is cell-based, human. The conditions noted are these: long-term incubation, 1 μg/mL. The method, then:
The effect of long-term incubation of HDF with E4 is assessed by MTT, a colorimetric assay for assessing cell metabolic activity.

Setting [5] is: 1% HA (Hycoat) + 100 mcg/mL CHLCu, 40 units Vitrase, 25° C., 30 minutes.

Bounds are passed on as bounds.

As to Sodium Copper Chlorophyllin C3999, the “COL15A1 expression (modulation)” value in the data set with COL15A1 (10 μg/ml) amounted to 1.5 fold. Moreover, in the data set on COL1A1 (10 μg/ml), the “COL1A1 expression (modulation)” value turned out to be 1.2 fold. In addition, the “COL5A1 expression (modulation)” value in the data set with COL5A1 (10 μg/ml) is 1.3 fold. Moreover, the entries for the “% CTRL (COL-I)” value in data set [1] (5 μg/mL), in data set [1] (10 μg/mL) and in data set [1] (20 μg/mL) were 97 % CTRL, 110 % CTRL and 121 % CTRL, respectively. Besides, the “% CTRL (Cell # Standardized)” value in data set [1] (5 μg/mL) is on record as 101 % CTRL; in data set [1] (10 μg/mL) it was 118 % CTRL; in data set [1] (20 μg/mL), 145 % CTRL. In addition, the “% CTRL (Cell #)” value was found to be 95 % CTRL in data set [2] (5 μg/mL), 92 % CTRL in data set [2] (10 μg/mL) and 83 % CTRL in data set [2] (20 μg/mL).
On to “Chlorophyllin Copper Complex Sodium [CHLcu]”, for which, in data set [3] (1% HA, 25, 40, 50° C., up to eight weeks), the “viscosity change compared with samples not containing CHLCu” value is listed as “less of a viscosity change”. In addition, the “viscosity deviation from baseline after 8 weeks of storage” value in data set [3] (HA product stored with CHLcu about 50 to about 250 ppm, 40° C.) is at most 5%. Moreover, the viscosity increase entry in data set [3] (HA product stored with CHLcu about 50 to about 250 ppm, 40° C., about 8 weeks) is given as “up to 25%”. Moreover, the “viscosity before Vitrase” value in data set [4] (1% HA (Hycoat) + 100 mcg/mL CHLCu) is given as 450.6 cps. Moreover, in data set [4] (setting [5]), the “% of initial viscosity after Vitrase” value came out at 35.9% and the “viscosity after Vitrase” value was 161.8 cps. The “loss of viscosity when challenged with hyaluronidase” value in data set [4] (product containing HA (or modified HA) and CHLCu) is “reduced loss of viscosity”.
With Isochlorin E4 Disodium, in the data set with COL15A1 (2 μg/ml), the “COL15A1 expression (modulation)” value is 1.2 fold. Moreover, the “COL1A1 expression (modulation)” value with COL1A1 (2 μg/ml) is recorded as 1.2 fold. Besides, in the data set with COL5A1 (2 μg/ml), the “COL5A1 expression (modulation)” value was 1.5 fold. Moreover, the “HDF cell metabolic activity (MTT)” value in the data set on HDF is “unaffected”. Besides, the “% CTRL (COL-I)” value in data set [1] (2 μg/mL) is 120 % CTRL; in data set [1] (5 μg/mL) it was 94 % CTRL; in data set [1] (10 μg/mL), 90 % CTRL. In addition, the “% CTRL (Cell # Standardized)” value in data set [1] (2 μg/mL) was 133 % CTRL; in data set [1] (5 μg/mL), 115 % CTRL; in data set [1] (10 μg/mL), 111 % CTRL. In addition, the “Cell # Standardized” value turned out to be 88 in data set [1] (0.25 ug/ml), 89 in data set [1] (1 μg/ml), 113 in data set [1] (2 μg/ml) and 101 in data set [1] (5 μg/ml). For the same substance, the “% CTRL (Cell #)” value stood at 89 % CTRL in data set [2] (2 μg/mL), 81 % CTRL in data set [2] (5 μg/mL) and 80 % CTRL in data set [2] (10 μg/mL).
As for “L-Ascorbic acid 2-phosphate sesquimagnesium salt [MAP, reference compound]”, the “% CTRL (Cell #)” value was 111 % CTRL in data set [2] (50 μg/mL) and 100 % CTRL in data set [2] (100 μg/mL).
Regarding Chlorophyllin Sodium Copper Salt [CSCS], the “COL15A1 expression (modulation)” value with COL15A1 (10 μg/ml) turned out to be 1.2 fold. In addition, the “COL1A1 expression (modulation)” value in the data set on COL1A1 (10 μg/ml) was determined as 1.5 fold. In addition, the “COL5A1 expression (modulation)” value with COL5A1 (10 μg/ml) worked out at 1.7 fold. For the same substance, the “% CTRL (COL-I)” value in data set [1] (5 μg/mL) was found to be 95 % CTRL; in data set [1] (10 μg/mL), 85 % CTRL; in data set [1] (20 μg/mL) it was 84 % CTRL. For the same substance, the “% CTRL (Cell # Standardized)” value in data set [1] (5 μg/mL) worked out at 99 % CTRL; in data set [1] (10 μg/mL) it was 96 % CTRL; in data set [1] (20 μg/mL), 94 % CTRL. Besides, the “Cell # Standardized” value in data set [1] (0.25 ug/ml) was found to be 97; in data set [1] (1 μg/ml), 96; in data set [1] (2 μg/ml), 114; in data set [1] (5 μg/ml) it was 110. The “% CTRL (Cell #)” value in data set [2] (5 μg/mL) is 95 % CTRL; in data set [2] (10 μg/mL), 87 % CTRL; in data set [2] (20 μg/mL), 88 % CTRL.
